Article PMC7962978, “PSMA-D4 Radioligand for Targeted Therapy of Prostate Cancer: Synthesis, Characteristics and Preliminary Assessment of Biological Properties” (International Journal of Molecular Sciences, 2021)
Values joined by “and” are separate entries in the source; they are usually repeats but may differ in a detail not shown here. Equal values may be shown once. Each block holds one molecule with its values, some of them ahead of it.

Assays:
LNCaP tumor-bearing mice = test: Ex vivo biodistribution in mice bearing LNCaP tumor
Method: An experimental tumor murine model was induced using LNCaP cell, which grew to 80–90% confluence before trypsinization and formulation in Matrixgel™ Basement Membrane Matrix (Bedford, MA, USA) for implantation into mice. The mice were subcutaneously injected in the shoulder with 200 mcL bolus containing a suspension of 10^6 freshly harvested cell line LNCaP in Matrixgel™. This procedure was performed under anaesthesia with 2% isoflurane. The animals were kept under pathogen-free condition, and experiments were performed 2–3 weeks later when a tumor reached a volume of approximately 150 ± 60 mm^3. Then, the animals were randomized into two groups (25 mice per group, five mice per time point): Group 1, treated with a single intravenous injection of [^90Y]Y-PSMA-D4 (0.1 mL, 0.1 mcg, 15.5 MBq, SA 16.7 GBq mg^−1 = 17.2 GBq mcmol^−1) and Group 2, treated with a single intravenous injection of [^47Sc]Sc-PSMA-D4 (0.1 mL, 0.19 mcg, 10 MBq, SA 4.8 GBq mg^−1 = 4.57 GBq mcmol^−1).
At 1, 2, 4, 6, 24, and 48 h after injection, the animals were euthanized by cervical dislocation and dissected. Selected organs and tissues were assayed for their radioactivity and weighted. The physiological distribution was calculated and expressed in terms of the percentage of administrated radioactivity found in each of the selected organs or tissues per gram (%ID g^−1).
Results are provided as mean ± SD. The results of physiological distribution are presented as a percentage of the dose administered per gram of tissue (%ID g^−1) as average value with standard deviation (%ID g^−1; mean ± standard deviation (SD)) with n representing the number of animals per group. Data were statistically analyzed using GraphPad Prism version 8.0.0 for Window.

PSMA antigen = target: T1, PSMA antigen (Homo sapiens, UniProt Q04609); test: Saturation radioligand binding assay on LNCaP (PSMA positive) and PC3 (PSMA negative) cell membranes; conditions: for Kd: LNCaP cell membranes, 2 h, 37 °C; for Specific Binding: total binding on LNCaP minus non-specific binding on PC3 membranes
T1 construct: PSMA antigen expressed on LNCaP cell membranes; endogenous in cells; host or cells: LNCaP cell membranes (PC3 membranes as PSMA-negative control)
Method: The equilibrium constant (KD) was determined by a saturation binding experiment performed in PSMA positive LNCaP and PSMA negative PC3 cell membranes isolated according to the procedure developed by Fichna et al.. The 50 mcL of LNCaP and PC3 cell membranes were seeded on special MultiScreen™ 96 well filter plates (Merck, Warsaw, Poland) and incubated for 2 h with increasing concentration of [^177Lu]Lu-PSMA-D4, [^90Y]Y-PSMA-D4, and […] (0.016–194 nM) at 37 °C. After incubation, the unbound radiocomplexes were filtered under vacuum, and the membranes were washed twice using PBS. The filters containing membranes with the attached radiotracer were extruded into tubes using MultiScreen Multile Punch (Merck). The number of associated inhibitors was determined by measuring the radioactivity of squeezed filters using Wallac Wizard 1470 γ counter. The KD and Bmax were calculated by nonlinear regression using the GraphPad Prism statistic program.

[1] = Blood pharmacokinetics, one-phase decay model, LNCaP tumor-bearing mice; assay type: in vivo; conditions: i.v.
Method: The pharmacokinetic analysis of the [^47Sc]Sc-PSMA-D4 was based on the curves of the %ID g^−1 accumulated in the blood. The pharmacokinetic parameters were determined according to a one-phase decay model. The following parameters were used: K (rate constant) and half-life calculated as ln(2)/K.
For blood activity data, a one-phase exponential decay model was used to model the percentage of remaining activity (%ID g^−1) as a time post-injection function.

[2] = Lipophilicity determination (logD), shake-flask method; assay type: physicochemical; conditions: n-octanol / PBS pH 7.4, shake-flask
Method: The partition coefficient logD of the radioligands was determined by the shake-flask method. The solution of 10 to 50 MBq of radiolabeled PSMA ligands (D-4, 617, 11, I&T) in 1.0 mL of phosphate-buffered saline (PBS, pH 7.4) was added to 1.0 mL of presaturated n-octanol solution (n = 3). Vials were shaken vigorously for 10 min. To achieve quantitative phase separation, the vials were centrifuged at 1600 rpm for 5 min. The radioactivity concentration in a defined volume of both the aqueous and the organic phase in six replicates each was measured in a γ-counter (Wizard 1470, Wallac, Turku, Finland). The partition coefficient was calculated as the logarithm of the ratio between counts per minute (cpm) measured in the n-octanol phase to the PBS phase counts.

LNCaP cells = test: Cell uptake (total binding) and internalization in LNCaP cells; assay type: cell-based, human; conditions: 37 °C, 2 h
Method: To determine cell uptake and internalization of [^177Lu]Lu-PSMA-D4 and [^90Y]Y-PSMA-D4, LNCaP cells (5 × 10^5 cells well^−1) were incubated in un-supplemented RPMI 1640 medium with one concentration of tested radioligands on 12-well plates in 37 °C per 2 h. After the appropriate time, the medium was removed, and cells were washed twice using phosphate buffer saline (PBS, IITD PAN, Wroclaw, Poland). The cells were treated twice with 1 mL of 50 mM glycine in 0.1 M NaCl at a pH of 2.8 and incubated for 5 min at room temperature to collect extracellularly bound compound. The internalization was determined by measuring the radioactivity of 1mL of 1 M NaOH used for cell lysis. Total binding was calculated as a sum of the membrane and internalized fractions measured using Wallac Wizard 1470 γ counter. As a control, [^177Lu]Lu-PSMA-617 and [^68Ga]Ga-PSMA-11 were used.

[3] = Blood pharmacokinetics, one-phase model, healthy rats; assay type: in vivo; conditions: healthy rats (data not presented)

T1 sequence (Q04609 whole entry): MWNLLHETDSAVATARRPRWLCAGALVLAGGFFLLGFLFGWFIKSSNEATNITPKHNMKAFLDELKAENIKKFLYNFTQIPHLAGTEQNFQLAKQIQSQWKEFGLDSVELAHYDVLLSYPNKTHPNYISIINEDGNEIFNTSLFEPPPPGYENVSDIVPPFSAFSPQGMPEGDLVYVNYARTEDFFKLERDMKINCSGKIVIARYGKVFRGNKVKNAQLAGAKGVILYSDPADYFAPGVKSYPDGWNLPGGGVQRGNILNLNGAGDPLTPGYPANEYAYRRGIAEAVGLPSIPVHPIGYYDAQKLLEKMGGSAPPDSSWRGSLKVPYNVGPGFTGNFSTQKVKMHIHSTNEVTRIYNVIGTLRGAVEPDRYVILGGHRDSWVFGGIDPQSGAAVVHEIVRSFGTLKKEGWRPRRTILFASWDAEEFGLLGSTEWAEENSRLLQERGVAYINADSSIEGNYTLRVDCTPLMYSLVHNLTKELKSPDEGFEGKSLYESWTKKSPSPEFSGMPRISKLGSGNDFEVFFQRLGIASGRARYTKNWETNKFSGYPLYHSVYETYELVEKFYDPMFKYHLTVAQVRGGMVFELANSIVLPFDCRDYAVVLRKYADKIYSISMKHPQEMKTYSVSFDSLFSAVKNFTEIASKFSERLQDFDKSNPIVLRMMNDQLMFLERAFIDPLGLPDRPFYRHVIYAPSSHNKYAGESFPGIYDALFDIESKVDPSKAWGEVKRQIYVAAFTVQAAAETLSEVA

- T/B (ratio tumor to blood) (LNCaP tumor-bearing mice; 1 h after i.v. injection): 31.6
- T/K (ratio tumor to kidneys) (LNCaP tumor-bearing mice; 1 h after i.v. injection): 1.0
- T/M (ratio tumor to muscle) (LNCaP tumor-bearing mice; 1 h after i.v. injection): 135.2
- blood (LNCaP tumor-bearing mice; 1 h after i.v. injection): 0.29 ± 0.08 %ID g^−1
- kidneys (LNCaP tumor-bearing mice; 1 h after i.v. injection): 9.46 ± 1.44 %ID g^−1
- large intestine (LNCaP tumor-bearing mice; 1 h after i.v. injection): 0.09 ± 0.03 %ID g^−1
- liver (LNCaP tumor-bearing mice; 1 h after i.v. injection): 0.13 ± 0.02 %ID g^−1
- muscle (LNCaP tumor-bearing mice; 1 h after i.v. injection): 0.10 ± 0.06 %ID g^−1
- small intestine (LNCaP tumor-bearing mice; 1 h after i.v. injection): 0.35 ± 0.19 %ID g^−1
- spleen (LNCaP tumor-bearing mice; 1 h after i.v. injection): 0.52 ± 0.19 %ID g^−1
- stomach (LNCaP tumor-bearing mice; 1 h after i.v. injection): 0.23 ± 0.09 %ID g^−1
- tumor (LNCaP tumor-bearing mice; 1 h after i.v. injection): 9.24 ± 5.13 %ID g^−1
- urine (LNCaP tumor-bearing mice; 1 h after i.v. injection): 89.23 ± 2.63 %ID
- T/B (ratio tumor to blood) (LNCaP tumor-bearing mice; 4 h after i.v. injection): 120.9
- T/K (ratio tumor to kidneys) (LNCaP tumor-bearing mice; 4 h after i.v. injection): 4.3
- T/M (ratio tumor to muscle) (LNCaP tumor-bearing mice; 4 h after i.v. injection): 24.3
- blood (LNCaP tumor-bearing mice; 4 h after i.v. injection): 0.08 ± 0.04 %ID g^−1
- kidneys (LNCaP tumor-bearing mice; 4 h after i.v. injection): 2.16 ± 0.86 %ID g^−1
- large intestine (LNCaP tumor-bearing mice; 4 h after i.v. injection): 0.70 ± 0.48 %ID g^−1
- liver (LNCaP tumor-bearing mice; 4 h after i.v. injection): 0.08 ± 0.04 %ID g^−1
- muscle (LNCaP tumor-bearing mice; 4 h after i.v. injection): 0.39 ± 0.17 %ID g^−1
- small intestine (LNCaP tumor-bearing mice; 4 h after i.v. injection): 0.41 ± 0.30 %ID g^−1
- spleen (LNCaP tumor-bearing mice; 4 h after i.v. injection): 0.57 ± 0.31 %ID g^−1
- stomach (LNCaP tumor-bearing mice; 4 h after i.v. injection): 0.39 ± 0.17 %ID g^−1
- tumor (LNCaP tumor-bearing mice; 4 h after i.v. injection): 9.22 ± 2.21 %ID g^−1
- urine (LNCaP tumor-bearing mice; 4 h after i.v. injection): 93.42 ± 2.07 %ID
- T/B (ratio tumor to blood) (LNCaP tumor-bearing mice; 6 h after i.v. injection): 207.6
- T/K (ratio tumor to kidneys) (LNCaP tumor-bearing mice; 6 h after i.v. injection): 6.1
- T/M (ratio tumor to muscle) (LNCaP tumor-bearing mice; 6 h after i.v. injection): 251.0
- blood (LNCaP tumor-bearing mice; 6 h after i.v. injection): 0.04 ± 0.01 %ID g^−1
- kidneys (LNCaP tumor-bearing mice; 6 h after i.v. injection): 1.42 ± 0.28 %ID g^−1
- large intestine (LNCaP tumor-bearing mice; 6 h after i.v. injection): 0.69 ± 0.17 %ID g^−1
- liver (LNCaP tumor-bearing mice; 6 h after i.v. injection): 0.06 ± 0.01 %ID g^−1
- muscle (LNCaP tumor-bearing mice; 6 h after i.v. injection): 0.03 ± 0.02 %ID g^−1
- small intestine (LNCaP tumor-bearing mice; 6 h after i.v. injection): 0.11 ± 0.07 %ID g^−1
- spleen (LNCaP tumor-bearing mice; 6 h after i.v. injection): 0.08 ± 0.04 %ID g^−1
- stomach (LNCaP tumor-bearing mice; 6 h after i.v. injection): 0.08 ± 0.09 %ID g^−1
- tumor (LNCaP tumor-bearing mice; 6 h after i.v. injection): 8.65 ± 3.19 %ID g^−1
- urine (LNCaP tumor-bearing mice; 6 h after i.v. injection): 94.89 ± 1.34 %ID
- T/B (ratio tumor to blood) (LNCaP tumor-bearing mice; 24 h after i.v. injection): 467.3
- T/K (ratio tumor to kidneys) (LNCaP tumor-bearing mice; 24 h after i.v. injection): 18.4
- T/M (ratio tumor to muscle) (LNCaP tumor-bearing mice; 24 h after i.v. injection): 229.0
- blood (LNCaP tumor-bearing mice; 24 h after i.v. injection): 0.01 ± 0.01 %ID g^−1
- kidneys (LNCaP tumor-bearing mice; 24 h after i.v. injection): 0.29 ± 0.09 %ID g^−1
- large intestine (LNCaP tumor-bearing mice; 24 h after i.v. injection): 0.12 ± 0.12 %ID g^−1
- liver (LNCaP tumor-bearing mice; 24 h after i.v. injection): 0.03 ± 0.01 %ID g^−1
- muscle (LNCaP tumor-bearing mice; 24 h after i.v. injection): 0.02 ± 0.02 %ID g^−1
- small intestine (LNCaP tumor-bearing mice; 24 h after i.v. injection): 0.34 ± 0.18 %ID g^−1
- spleen (LNCaP tumor-bearing mice; 24 h after i.v. injection): 0.04 ± 0.01 %ID g^−1
- stomach (LNCaP tumor-bearing mice; 24 h after i.v. injection): 0.05 ± 0.06 %ID g^−1
- tumor (LNCaP tumor-bearing mice; 24 h after i.v. injection): 5.28 ± 3.01 %ID g^−1
- urine (LNCaP tumor-bearing mice; 24 h after i.v. injection): 97.89 ± 1.22 %ID
- T/B (ratio tumor to blood) (LNCaP tumor-bearing mice; 48 h after i.v. injection): 78.8
- T/K (ratio tumor to kidneys) (LNCaP tumor-bearing mice; 48 h after i.v. injection): 16.0
- T/M (ratio tumor to muscle) (LNCaP tumor-bearing mice; 48 h after i.v. injection): 66.7
- blood (LNCaP tumor-bearing mice; 48 h after i.v. injection): 0.05 ± 0.03 %ID g^−1
- kidneys (LNCaP tumor-bearing mice; 48 h after i.v. injection): 0.26 ± 0.14 %ID g^−1
- large intestine (LNCaP tumor-bearing mice; 48 h after i.v. injection): 1.63 ± 0.31 %ID g^−1
- liver (LNCaP tumor-bearing mice; 48 h after i.v. injection): 0.04 ± 0.01 %ID g^−1
- muscle (LNCaP tumor-bearing mice; 48 h after i.v. injection): 0.06 ± 0.06 %ID g^−1
- small intestine (LNCaP tumor-bearing mice; 48 h after i.v. injection): 0.45 ± 0.13 %ID g^−1
- spleen (LNCaP tumor-bearing mice; 48 h after i.v. injection): 0.10 ± 0.09 %ID g^−1
- stomach (LNCaP tumor-bearing mice; 48 h after i.v. injection): 0.03 ± 0.04 %ID g^−1
- tumor (LNCaP tumor-bearing mice; 48 h after i.v. injection): 4.11 ± 1.08 %ID g^−1
- urine (LNCaP tumor-bearing mice; 48 h after i.v. injection): 95.37 ± 1.89 %ID
- Kd (PSMA antigen): 3.4 ± 2 nM
- Specific Binding (PSMA antigen): 98.8 ± 0.9%
- blood half-life [1]: 10.4 min and 10.2 min
SMILES: O=C([O-])CN1CCN(CC(=O)[O-])CCN(CC(=O)NCC2CCC(C(=O)NC(Cc3c[nH]c4ccccc34)C(=O)NCCCCC(NC(=O)NC(CCC(=O)O)C(=O)O)C(=O)O)CC2)CCN(CC(=O)[O-])CC1.[47Sc+3] (centres unmarked) [[^47Sc]Sc-PSMA-D4]

SMILES: O=C([O-])CN1CCN(CC(=O)[O-])CCN(CC(=O)NCC2CCC(C(=O)NC(Cc3c[nH]c4ccccc34)C(=O)NCCCCC(NC(=O)NC(CCC(=O)O)C(=O)O)C(=O)O)CC2)CCN(CC(=O)[O-])CC1.[177Lu+3] (centres unmarked) [[^177Lu]Lu-PSMA-D4]
- logD [2]: −5.16 ± 0.07
- Kd (PSMA antigen): 2.4 ± 0.3 nM
- Specific Binding (PSMA antigen): 99.1 ± 0.3%
- Internalization (LNCaP cells): 37.0 ± 3.3%
- Total Binding (LNCaP cells): 10.2%
- blood half-life [3]: 33 min
